In patent US11696924B2, “Combination therapy using PDK1 and PI3K inhibitors” (MEMORIAL SLOAN-KETTERING CANCER CENTER, priority 2015, dated 2023):
“Also recorded” adds a separate entry of the source.

Tests used:
[1] = tested on: pNDRG1 (T346); assay: Western blot of NDRG1 phosphorylation (T346); format: cell-based; details: 4 h
Description: A) SGK1 mRNA levels in breast cancer cell lines sensitive or resistant to BYL719 (n=27). B) SGK1 mRNA levels in PIK3CA-mutant breast cancer cell lines sensitive or resistant to BYL719. C) Western blot of SGK1, SGK2, SGK3 and phosphorylated NDRG1 in a panel of PIK3CA—mutant breast cancer cell lines sensitive or resistant to BYL719. D) Western blot for NDRG1 and phosphorylated NDRG1 (T346) in BYL719-sensitive and -resistant breast cancer cell lines treated with BYL719 (1 μM) for 4 h. […] P values are calculated using Student's t-test. Error bars are ±SEM.
A) Dose-response curves from MDA-MB-361 cells transduced with pLenti7.3-LacZ or pLenti7.3-SGK1 (Δ60, S422D) treated with increasing concentrations of BYL719 for 6 days. B) Western blot analysis of LacZ and SGK1 MDA-MB-361 cells treated with BYL719 (1 μM) for 4 h. […] The DFG motif amino acids are indicated (D240, F241, G242). […] Hydrogen bonds are shown as dotted lines. […] L) IHC analysis of tumors from K collected at the end of the experiment. M) Top panel: growth curves of HCC1954 cells stably expressing doxycycline-inducible control (REN) or SGK1 knockdown treated with increasing concentrations of BYL719 for 6 days. Bottom panel: Western blot analysis of GFP-sorted control (REN) and SGK1 shRNA cells treated with BYL719 (1 μM) for 4 h. P values are calculated using Student's t-test. Error bars are ±SEM.
(§1) Then, membranes were probed using specific antibodies.

[2] = tested on: mTORC1; assay: Western blot of mTORC1 signaling (pS6K, pS6, p4EBP1); format: cell-based
Source text: For western blot analysis proteins were extracted in RIPA buffer supplemented with protease and phosphatase inhibitors (Roche). Protein lysates were separated using SDS-PAGE gels and transferred to a PVDF membrane. Then, membranes were probed using specific antibodies. PDK1, pAKT (S473), pAKT (T308), pS6K (T389), pS6 (S240/4), pS6 (235/6), p4EBP1 (S65), PARP, Actin, pRSK (S227), cleaved Caspase 3, pFOXO1/3 (T24/T32), SGK1, SGK2, SGK3, pNDRG1 (T346), NDRG1, Flag, HA, and phospho-RXRXX(S/T) (SEQ ID NO: 1) were from Cell Signaling Technology (CST).

[3] = tested on: HCC1954 cells; assay: apoptosis: PARP cleavage and caspase 3/7 activity; format: cell-based; details: HCC1954 shPDK1, BYL719 1 μM, long term
Source text: For Caspase 3/7 activity, the Caspase-Glo® 3/7 Assay kit from Promega was used following manufacturer's instructions. The caspase inhibitor zVAD-fmk was used to inhibit apoptosis in cells and was also obtained from Promega.
as §1

[4] = tested on: SGK1; assay: kinase activity and phosphorylation of immunoprecipitated endogenous SGK1; format: cell-based; details: HCC1954, 4 hr, Crosstide substrate
Description: In vitro kinase activity of endogenous SGK1 and AKT was assayed by measuring [γ-32P] ATP incorporation into Crosstide substrate peptide [[…]] […] SGK1 and AKT were immunoprecipitated from HCC1954 cell line 4 hr after treatment. Immunoprecipitates were washed once with lysis buffer containing 500 mM NaCl, once with lysis buffer, and twice with Buffer A (50 mM Tris pH 7.5, 0.1 mM EGTA). Reactions were carried out in 40 μL total volume containing 0.1 mM [γ-32P] ATP (400-1000 cpm/pmol), 10 mM magnesium acetate, and 30 μM Crosstide peptide. Reactions were terminated by adding 10 μL […] EDTA. 40 μL of the reaction mix was spotted on P81 paper, which was immediately immersed into 50 mM ortophosphoric acid and washed several times. Papers were rinsed in acetone and air dried. Radioactivity was quantified by Cerenkov counting. One unit of enzyme activity was defined as the amount of enzyme that catalyzes incorporation of 1 nmol of [γ-32P] ATP into the substrate over one minute.

[5] = tested on: PIK3CA-mutant breast cancer; assay: clinical trial NCT01870505, PIK3CA-mutant breast cancer; format: in vivo, patients; details: with an aromatase inhibitor
Source text: We then explored whether SGK1 and pNDRG1 expression correlate with clinical outcome to PI3Kα inhibition by analyzing PIK3CA-mutant breast cancer samples from 18 patients treated with BYL719 in combination with an aromatase inhibitor (NCT01870505). Three of these tumors expressed high levels of SGK1 mRNA while the remaining 15 had medium/low levels of SGK1 mRNA. […] This was in agreement with the longer time to disease progression of this subset of patients when compared to the SGK1-high/pNDRG1-positive cohort (FIG. 4H, I).
The MSKCC Institutional Review Board approved the study. Pre-treatment FFPE blocks from patients treated with the PI3Kα inhibitor BYL719 enrolled in the clinical trial NCT01870505 conducted at MSKCC were used for IHC. Informed consent was obtained from all subjects.
For the study of patients treated with the PI3Kα inhibitor BYL719, pre-treatment biopsy FFPE blocks from patients enrolled in the clinical trial NCT01870505 conducted at MSKCC were used for IHC as described above. For the selection of the patients, PIK3CA and other tumor genomic drivers were analyzed using MSK-IMPACT (Cheng et al., 2015). […] SGK1 mRNA levels were determined using next-generation sequencing (NGS) and the expression results were presented as raw Reads Per Kilobase of transcript per Million mapped reads (RPKM). Mean and standard deviation (SD) was calculated across all the samples with available NGS data and overexpression of SGK1 was called for the samples with mRNA levels greater than mean+1SD. For 6 samples, RNA quality and quantity was not optimal for NGS. In these cases, SGK1 mRNA levels were determined using RT-qPCR as described above. RNA from low expressing (T47D) and high expressing (HCC1954) cell lines were used as positive control and absolute mRNA levels were quantified.

[6] = tested on: HCC1954 xenografts; assay: HCC1954 in vivo xenograft; parameters: species or system mice
Description: Animals were maintained and treated in accordance with Institutional Guidelines of Memorial Sloan Kettering Cancer Center (Protocol number 12-10-019). 5×10^6 cells in 1:1 PBS/Matrigel (Corning) were injected subcutaneously into six-week-old female athymic Foxn1^nu nude mice.
When tumors reached a volume of ˜150 mm^3 mice were randomized, treated, and tumors were measured twice a week during a month. At least 10 tumors per group were used in all the studies. […] Tumors were harvested at the end of the experiment three hours after the last dosage, fixed in 4% formaldehyde in PBS, and paraffin-embedded. […] Primary staining was followed by 60 minutes incubation with biotinylated goat anti-rabbit IgG (Vector labs) 1:200. Blocker D, Streptavidin-HRP and DAB detection kit (Ventana Medical Systems) were used according to the manufacturer instructions.

## Cc1nc(NC(=O)N2CCC[C@H]2C(N)=O)sc1-c1ccnc(C(C)(C)C(F)(F)F)c1 [BYL719]
[1]; BYL719-resistant cell lines
  NDRG1 phosphorylation (T346): maintain NDRG1 phosphorylation
[1]; BYL719-sensitive cell lines, 1 μM
  NDRG1 phosphorylation (T346): decreased NDRG1 phosphorylation at T346
[2]; BYL719-resistant cells (HCC1954, JIMT1), 4 h, BYL719 1 μM, GSK2334470 1 μM, SGK1-inh 10 μM
  mTORC1 signaling: not downstream mTORC1 targets; also recorded: not mTORC1 signaling
[2]; HCC1954 and JIMT1 shPDK1, BYL719 1 μM, 4 h
  phosphorylation of mTORC1 downstream targets in PDK1 knockdown cells: decreased the phosphorylation of the mTORC1 downstream targets
[2]; HCT116 PDPK1−/− cells
  mTORC1 signaling: inhibits mTORC1
[2]; HCT116 parental cells
  mTORC1 signaling: does not decrease mTORC1 signaling
[2]; MDA-MB-361 cells overexpressing SGK1, 1 μM, 4 h
  mTORC1 signaling: maintained mTORC1 signaling
[2]; MDA-MB-361 parental cells, 1 μM, 4 h
  AKT phosphorylation and mTORC1 signaling: decreased both AKT phosphorylation and mTORC1 signaling
[3]
  apoptosis markers in PDK1 knockdown cells: induced PARP cleavage (FIG. 2C) and increased caspase 3/7 activity
[4]
  endogenous SGK1 kinase activity: remains active
[5]; patients with pNDRG1-negative tumors
  clinical response by RECIST: three had partial responses and eight had stable disease
[5]; three patients, tumors with high SGK1, pNDRG1 positive
  clinical response: did not respond to therapy
[5]; two patients, medium/low SGK1, pNDRG1 positive
  clinical response: rapidly progressed
[6]; HCC1954 shGFP vs shPDK1 xenografts
  S6 phosphorylation (S240/4) and 4EBP1 (T37/46) in tumors, IHC: inhibited only in shPDK1 xenografts
[6]; HCC1954 shGFP xenografts
  tumor growth: modest delay in tumor growth
[6]; HCC1954 shPDK1 xenografts
  tumor growth: durable tumor shrinkage
[6]; HCC1954 xenografts, BYL719 25 mg/kg daily p.o., GSK2334470 100 mg/kg i.p. 3 times/week, SGK1-inh 50 mg/kg daily p.o.
  tumor growth: some antitumor activity
[6]; tumors collected at the end of the experiment
  pAKT (S473) in tumors, IHC: effectively suppressed AKT phosphorylation (S473); also recorded: sufficient to suppress pAKT
